Consider 10 molecules from ChEMBL document CHEMBL1132777, “Novel, potent and selective chimeric FXa inhibitors featuring hydrophobic P1-ketoamide moieties” (Bioorg Med Chem Lett, 2000).

Where only a bound is given, the exact number is not on record here.

The IC50 is the concentration that gives 50% inhibition. A higher IC50 goes with a need for much substance.

Assay [1] concerns the target T1, Coagulation factor X (Homo sapiens, UniProt P00742). The assay can be described thus: Inhibitory activity against Coagulation factor X.
Target sequence in this assay (P00742 41-179 limits assumed): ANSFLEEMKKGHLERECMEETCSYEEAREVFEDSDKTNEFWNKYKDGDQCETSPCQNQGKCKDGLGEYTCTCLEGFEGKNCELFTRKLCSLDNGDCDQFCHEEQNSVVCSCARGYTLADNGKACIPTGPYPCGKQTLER
Target sequence in this assay (P00742 235-488 limits assumed): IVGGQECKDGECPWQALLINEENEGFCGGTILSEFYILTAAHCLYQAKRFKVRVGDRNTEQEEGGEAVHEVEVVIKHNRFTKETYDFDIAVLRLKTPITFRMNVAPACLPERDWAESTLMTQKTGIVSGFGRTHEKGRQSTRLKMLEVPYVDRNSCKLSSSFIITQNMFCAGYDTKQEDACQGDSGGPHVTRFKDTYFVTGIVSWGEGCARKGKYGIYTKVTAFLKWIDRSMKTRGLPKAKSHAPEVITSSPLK
Assay [2] has as its target T2, Plasminogen (Homo sapiens, UniProt P00747). The assay can be described thus: In vitro inhibitory activity against plasmin.
For assay [3], the target named is T1, Coagulation factor X. Description: In vitro inhibitory activity against prothrombinase (PTase) complex.
Target sequence in this assay (P00742 whole entry): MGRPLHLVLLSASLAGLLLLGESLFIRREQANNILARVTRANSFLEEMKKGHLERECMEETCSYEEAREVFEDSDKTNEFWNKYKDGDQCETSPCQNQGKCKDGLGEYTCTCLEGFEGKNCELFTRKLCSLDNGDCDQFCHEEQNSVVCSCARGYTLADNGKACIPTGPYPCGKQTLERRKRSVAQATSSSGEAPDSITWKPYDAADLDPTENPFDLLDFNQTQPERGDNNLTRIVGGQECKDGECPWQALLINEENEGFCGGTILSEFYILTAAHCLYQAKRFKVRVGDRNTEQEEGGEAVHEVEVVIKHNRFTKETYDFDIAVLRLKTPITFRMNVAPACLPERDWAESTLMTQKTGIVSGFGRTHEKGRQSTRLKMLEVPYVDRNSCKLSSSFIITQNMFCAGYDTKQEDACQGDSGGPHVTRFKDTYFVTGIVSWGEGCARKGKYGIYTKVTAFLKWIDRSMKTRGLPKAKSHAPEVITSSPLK
Assay [4] addresses T3, Prothrombin (Homo sapiens, UniProt P00734). Description: In vitro inhibitory activity against Thrombin (FIIa).
Assay [5] has as its target T4, Serine protease 1 (Homo sapiens, UniProt P07477). Description: In vitro inhibitory activity against Human trypsin.
The target in assay [6] is T2, Plasminogen. The assay can be described thus: In vitro inhibitory activity against plasmin; inactive.
Assay [7] addresses T4, Serine protease 1. Description: In vitro inhibitory activity against Human trypsin; inactive.
In assay [8] the target is T3, Prothrombin. The assay can be described thus: In vitro inhibitory activity against Thrombin (FIIa); inactive.

T4 sequence (P07477 whole entry): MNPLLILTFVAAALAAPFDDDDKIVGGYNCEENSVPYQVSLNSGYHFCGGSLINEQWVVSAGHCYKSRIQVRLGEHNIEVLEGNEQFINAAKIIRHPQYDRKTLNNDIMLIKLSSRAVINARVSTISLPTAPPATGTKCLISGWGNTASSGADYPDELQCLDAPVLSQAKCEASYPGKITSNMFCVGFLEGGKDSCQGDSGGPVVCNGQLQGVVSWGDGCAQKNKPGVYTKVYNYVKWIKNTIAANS
T2 sequence (P00747 97-580 limits assumed): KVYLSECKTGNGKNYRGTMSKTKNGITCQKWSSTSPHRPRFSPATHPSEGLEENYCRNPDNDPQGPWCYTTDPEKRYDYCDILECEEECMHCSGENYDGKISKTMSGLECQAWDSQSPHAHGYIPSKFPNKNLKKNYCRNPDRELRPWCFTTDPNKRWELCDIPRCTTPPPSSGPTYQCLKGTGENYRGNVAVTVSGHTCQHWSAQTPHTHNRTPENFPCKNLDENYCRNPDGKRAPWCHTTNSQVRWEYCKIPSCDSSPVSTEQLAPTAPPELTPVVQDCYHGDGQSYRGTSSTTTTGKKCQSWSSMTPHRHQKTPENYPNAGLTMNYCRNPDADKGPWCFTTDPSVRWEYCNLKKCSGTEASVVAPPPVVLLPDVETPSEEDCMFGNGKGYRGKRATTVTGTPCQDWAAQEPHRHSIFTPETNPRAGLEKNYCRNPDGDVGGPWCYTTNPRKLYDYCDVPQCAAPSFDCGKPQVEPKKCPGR
T2 sequence (P00747 581-810 limits assumed): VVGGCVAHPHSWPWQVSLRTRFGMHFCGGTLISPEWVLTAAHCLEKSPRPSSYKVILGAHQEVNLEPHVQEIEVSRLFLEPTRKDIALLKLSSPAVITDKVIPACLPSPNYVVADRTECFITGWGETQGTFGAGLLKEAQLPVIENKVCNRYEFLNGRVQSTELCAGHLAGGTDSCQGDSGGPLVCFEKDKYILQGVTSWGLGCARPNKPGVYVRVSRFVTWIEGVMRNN

As to `CN(CC(=O)N[C@H]1CCCC(C(=N)N)C1O)C(=O)[C@@H](CCCN=C(N)N)NS(=O)(=O)Cc1ccccc1` (some centres undefined), the IC50 at Coagulation factor X [1] was 0.00086 µM; at Plasminogen [2], 1.2 µM; on Coagulation factor X [3], 0.0034 µM; at Prothrombin [4], above 2.5 µM; at Serine protease 1 [5] it was 0.0747 µM.

In the case of `CN(CC(=O)N[C@@H](CC1CCCCC1)C(=O)C(=O)NCc1ccccc1)C(=O)[C@@H](CCCN=C(N)N)NS(=O)(=O)Cc1ccccc1`, the IC50 against Coagulation factor X [1] was 0.00326 µM; at Plasminogen [2], above 2.5 µM; against Prothrombin [4] it was 1.96 µM; against Serine protease 1 [5], 2.5 µM.

With `CCOC(=O)CNC(=O)C(=O)[C@H](Cc1ccc(O)cc1)NC(=O)CN(C)C(=O)[C@@H](CCCN=C(N)N)NS(=O)(=O)Cc1ccccc1.O=C(O)C(F)(F)F`, the IC50 is 0.00763 µM at Coagulation factor X [1]; “Not Active” at Plasminogen [6]; 0.0292 µM against Coagulation factor X [3]; above 2.5 µM at Prothrombin [4]; “Not Active” against Serine protease 1 [7].

For the molecule `CCOC(=O)CNC(=O)C(=O)[C@H](Cc1ccc(OC(C)(C)C)cc1)NC(=O)CN(C)C(=O)[C@@H](CCCN=C(N)N)NS(=O)(=O)Cc1ccccc1.O=C(O)C(F)(F)F`, the 50% inhibitory concentration (IC50) was 0.246 µM on Coagulation factor X [1], above 2.5 µM at Plasminogen [2], “Not Active” on Prothrombin [8] and “Not Active” against Serine protease 1 [7].

Take `CN(CC(=O)N[C@@H](CC1CCCCC1)C(=O)C(=O)NCc1ccc2c(c1)OCO2)C(=O)[C@@H](CC/N=C(\N)N[N+](=O)[O-])NS(=O)(=O)Cc1ccccc1`: the IC50 is 0.0464 µM against Coagulation factor X [1], “Not Active” against Plasminogen [6], above 2.5 µM against Prothrombin [4] and “Not Active” against Serine protease 1 [7].

In the case of `CN(CC(=O)N[C@@H](CC1CCCCC1)C(=O)C(=O)NCCc1ccccc1)C(=O)[C@@H](CCCN=C(N)N)NS(=O)(=O)Cc1ccccc1`, the IC50 against Coagulation factor X [1] is 0.0132 µM; against Plasminogen [6], “Not Active”; against Prothrombin [4], 2.21 µM; on Serine protease 1 [5], above 2.5 µM.

Take `CN(CC(=O)N[C@@H](Cc1ccccc1)C(=O)C(=O)NCC(=O)NCCc1ccccc1)C(=O)[C@@H](CCCN=C(N)N)NS(=O)(=O)Cc1ccccc1.O=C(O)C(F)(F)F`: the IC50 on Coagulation factor X [1] was 0.00789 µM; at Plasminogen [6] it was “Not Active”; against Coagulation factor X [3] it was 0.0259 µM; against Prothrombin [4] it was above 2.5 µM; against Serine protease 1 [7] it was “Not Active”.

Take `CCOC(=O)CNC(=O)C(=O)[C@H](Cc1ccccc1)NC(=O)CN(C)C(=O)[C@@H](CCCN=C(N)N)NS(=O)(=O)Cc1ccccc1`: the IC50 was 0.0066 µM on Coagulation factor X [1]; “Not Active” at Plasminogen [6]; 0.0251 µM on Coagulation factor X [3]; above 2.5 µM against Prothrombin [4]; above 2.5 µM on Serine protease 1 [5].

As for `CCCCCNC(=O)C(=O)[C@H](CC1CCCCC1)NC(=O)CN(C)C(=O)[C@@H](CCCN=C(N)N)NS(=O)(=O)Cc1ccccc1`, the half-inhibitory concentration (IC50) was 0.00187 µM against Coagulation factor X [1], above 2.5 µM against Plasminogen [2], 3.83 µM at Prothrombin [4] and 0.163 µM against Serine protease 1 [5].

`CCOC(=O)CNC(=O)C(=O)[C@H](CC1CCCCC1)NC(=O)CN(C)C(=O)[C@@H](CCCN=C(N)N)NS(=O)(=O)Cc1ccccc1`: the IC50 at Coagulation factor X [1] is 0.00213 µM; on Plasminogen [6], “Not Active”; on Prothrombin [4], above 2.5 µM; on Serine protease 1 [7], “Not Active”.
